PMC9304322, “Targeting retinoic acid receptor alpha-corepressor interaction activates chaperone-mediated autophagy and protects against retinal degeneration” (Nature Communications, 2022)
“And” between values parts separate entries of the source, which are not always exact repeats. Equal values may be shown once. Read-outs that look alike come from different tables or passages of the source.

Assay: Pharmacokinetic analysis, plasma and brain;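 for Fig. 3a level, MEAN: plasma concentration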;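 for Fig. 3a level, single animals 1-3: plasma concentration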;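 for Fig. 3b level, MEAN: brain concentration in ng/g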;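 for Fig. 3b level, single animals 1-3: brain concentration in ng/g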
Assay type: in vivo, ICR (CD-1) male mice
Set-up: Fig. 3a level, single animals 1-3 / Fig. 3a level, MEAN / Fig. 3b level, single animals 1-3 / Fig. 3b level, MEAN: unit not given here
Settings: for Kp at 0.083 h / Kp at 0.25 h / Kp at 0.5 h / Kp at 1 h / Kp at 2 h / Kp at 4 h / Kp at 8 h / half-life: male, ICR (CD-1), mouse; for half-life: mice
Method: ICR (CD-1) male mice were fasted at least three hours and water was available ad libitum before the study. Animals were housed in a controlled environment, target conditions: temperature 18 to 29 °C, relative humidity 30 to 70%. Temperature and relative humidity was monitored daily. An electronic time-controlled lighting system was used to provide a 12 h light/12 h dark cycle. 3 mice for each indicated time point were administered 30 mg/Kg CA39 or CA77 by oral gavage or 1 mg/Kg CA39 or CA77 by intravenous injection using 30% PEG-400, 65% D5W (5% dextrose in water), 5% Tween-80 vehicle. Mice were sacrificed, and brain samples were harvested at […], 0.25 h, 0.5 h, 1 h, 2 h, 4 h, 8 h, 24 h, and analyzed for CA39 or CA77 levels using LC-MS/MS. Pharmacokinetics parameters were calculated using Phoenix WinNonlin 6.3. Experiments performed at SIMM-SERVIER joint Biopharmacy Laboratory.

With CC(=O)Nc1ccc(C2=Nc3ccc(Cl)cc3OC2)cc1 [CA77] the “Fig. 3a level, MEAN” value (IV, Time 0.25 h) was 30.2, the “Fig. 3a level, single animals 1-3” value (IV, Time 0.25 h) was 27.2 and 43.9 and 19.5 and the “Fig. 3b level, MEAN” value (IV, Time 0.25 h) was 3653.67. For the same compound, the “Fig. 3b level, single animals 1-3” value (IV, Time 0.25 h) was 3391 and 5173 and 2397, the “Fig. 3a level, MEAN” value (IV, Time 0.5 h) was 17.9 and the “Fig. 3a level, single animals 1-3” value (IV, Time 0.5 h) was 17.2 and 14.6 and 21.9. For the same compound, the “Fig. 3b level, MEAN” value (IV, Time 0.5 h) was 2647.67, the “Fig. 3b level, single animals 1-3” value (IV, Time 0.5 h) was 2198 and 2795 and 2950 and the “Fig. 3a level, MEAN” value (IV, Time 1 h) was 17.4333. For the same compound, the “Fig. 3a level, single animals 1-3” value (IV, Time 1 h) was 15.5 and 21.5 and 15.3, the “Fig. 3b level, MEAN” value (IV, Time 1 h) was 2521.11 and the “Fig. 3b level, single animals 1-3” value (IV, Time 1 h) was 2758.39 and 2650.88 and 2154.07. For the same compound, the “Fig. 3a level, MEAN” value (IV, Time 2 h) was 4.363, the “Fig. 3a level, single animals 1-3” value (IV, Time 2 h) was 7.54 and 1.71 and 3.84 and the “Fig. 3b level, MEAN” value (IV, Time 2 h) was 658.667. For the same compound, the “Fig. 3b level, single animals 1-3” value (IV, Time 2 h) was 773 and 411 and 792, the “Fig. 3a level, MEAN” value (IV, Time 4 h) was 0.3767 and the “Fig. 3a level, single animals 1-3” value (IV, Time 4 h) was “BLQ and 0.597 and 0.533”. The “Fig. 3b level, MEAN” value (IV, Time 4 h) was 104, the “Fig. 3b level, single animals 1-3” value (IV, Time 4 h) was 76 and 112 and 124 and the “Fig. 3a level, MEAN” value (IV, Time 8 h) was 0. For the same compound, the “Fig. 3a level, single animals 1-3” value (IV, Time 8 h) was “BLQ”, the “Fig. 3b level, MEAN” value (IV, Time 8 h) was 25.5467 and the “Fig. 3b level, single animals 1-3” value (IV, Time 8 h) was 7.74 and 27.5 and 41.4. For the same compound, the “Fig. 3a level, MEAN” value (IV, Time 24 h) was 0, the “Fig. 3a level, single animals 1-3” value (IV, Time 24 h) was “BLQ” and the “Fig. 3b level, MEAN” value (IV, Time 24 h) was 3. The “Fig. 3b level, single animals 1-3” value (IV, Time 24 h) was 2.68 and 4.25 and 2.07, the “B/P, Brian/Plasma” value (P.O., Time 0.25 h, individual animals) was 60.8033 and 75.265 and the “B/P, Brian/Plasma” value (P.O., Time 0.5 h, individual animals) was 154.065 and 93.9339. For the same compound, the “B/P, Brian/Plasma” value (P.O., Time 1 h, individual animals) was 105.807 and 124.313, the “B/P, Brian/Plasma” value (P.O., Time 2 h, individual animals) was 113.451 and 103.8 and the “B/P, Brian/Plasma” value (P.O., Time 4 h, individual animals) was 108.623 and 135.516. For the same compound, the “B/P, Brian/Plasma” value (P.O., Time 8 h, individual animals) was 133.365 and 145.604, the “Fig. 3b level, MEAN” value (PO, Time 0.25 h) was 9743 and the “Fig. 3b level, single animals 1-3” value (PO, Time 0.25 h) was 7893 and 7279 and 14057. The “Fig. 3b level, MEAN” value (PO, Time 0.5 h) was 16210.7, the “Fig. 3b level, single animals 1-3” value (PO, Time 0.5 h) was 13095 and 20145 and 15392 and the “Fig. 3b level, MEAN” value (PO, Time 1 h) was 30964. For the same compound, the “Fig. 3b level, single animals 1-3” value (PO, Time 1 h) was 31243 and 27952 and 33697, the “Fig. 3a level, MEAN” value (PO, Time 2 h) was 278 and the “Fig. 3a level, single animals 1-3” value (PO, Time 2 h) was 318 and 259 and 257. The “Fig. 3b level, MEAN” value (PO, Time 2 h) was 29203.3, the “Fig. 3b level, single animals 1-3” value (PO, Time 2 h) was 31592 and 29359 and 26659 and the “Fig. 3a level, MEAN” value (PO, Time 4 h) was 203.667. The “Fig. 3a level, single animals 1-3” value (PO, Time 4 h) was 163 and 258 and 190, the “Fig. 3b level, MEAN” value (PO, Time 4 h) was 24280.3 and the “Fig. 3b level, single animals 1-3” value (PO, Time 4 h) was 19042 and 28003 and 25796. For the same compound, the “Fig. 3a level, MEAN” value (PO, Time 8 h) was 44.4333, the “Fig. 3a level, single animals 1-3” value (PO, Time 8 h) was 55.2 and 45.3 and 32.8 and the “Fig. 3b level, MEAN” value (PO, Time 8 h) was 5756. For the same compound, the “Fig. 3b level, single animals 1-3” value (PO, Time 8 h) was 6451 and 6039 and 4778, the “Fig. 3a level, MEAN” value (PO, Time 24 h) was 0 and the “Fig. 3a level, single animals 1-3” value (PO, Time 24 h) was 0. For the same compound, the “Fig. 3b level, MEAN” value (PO, Time 24 h) was 10.0733, the “Fig. 3b level, single animals 1-3” value (PO, Time 24 h) was 18.9 and 6.07 and 5.25 and the “B/P, Brian/Plasma” value (i.v., Time 0.083 h, individual animals) was 71.1336 and 48.9012. For the same compound, the “B/P, Brian/Plasma” value (i.v., Time 0.25 h, individual animals) was 117.877 and 123.138, the “B/P, Brian/Plasma” value (i.v., Time 0.5 h, individual animals) was 191.891 and 134.551 and the “B/P, Brian/Plasma” value (i.v., Time 1 h, individual animals) was 123.104 and 140.908. For the same compound, the “B/P, Brian/Plasma” value (i.v., Time 2 h, individual animals) was 102.433 and 239.982 and 206.167, the “B/P, Brian/Plasma” value (i.v., Time 4 h, individual animals) was 232.498 and the Kp at 0.083 h (brain, iv, 1 mg/Kg, i.v., Time 0.083 h, individual animals, read-out: B/P, Brian/Plasma) was 71.3. It also gave a Kp at 0.083 h (brain, iv, 1 mg/Kg, i.v., Time 0.083 h, mean, read-out: B/P, Brian/Plasma, Mean) of 71.2, a Kp at 0.25 h (brain, iv, 1 mg/Kg, i.v., Time 0.25 h, individual animals, read-out: B/P, Brian/Plasma) of 125 and a Kp at 0.25 h (brain, iv, 1 mg/Kg, i.v., Time 0.25 h, mean, read-out: B/P, Brian/Plasma, Mean) of 122. It also gave a Kp at 0.5 h (brain, iv, 1 mg/Kg, i.v., Time 0.5 h, individual animals, read-out: B/P, Brian/Plasma) of 128, a Kp at 0.5 h (brain, iv, 1 mg/Kg, i.v., Time 0.5 h, mean, read-out: B/P, Brian/Plasma, Mean) of 151 and a Kp at 1 h (brain, iv, 1 mg/Kg, i.v., Time 1 h, individual animals, read-out: B/P, Brian/Plasma) of 178. It also gave a Kp at 1 h (brain, iv, 1 mg/Kg, i.v., Time 1 h, mean, read-out: B/P, Brian/Plasma, Mean) of 159, a Kp at 2 h (brain, iv, 1 mg/Kg, i.v., Time 2 h, mean, read-out: B/P, Brian/Plasma, Mean) of 183 and a Kp at 4 h (brain, iv, 1 mg/Kg, i.v., Time 4 h, individual animals, read-out: B/P, Brian/Plasma) of 188. For the same compound, the Kp at 4 h (brain, iv, 1 mg/Kg, i.v., Time 4 h, mean, read-out: B/P, Brian/Plasma, Mean) was 210, the Kp at 0.25 h (brain, po, 30 mg/Kg, P.O., Time 0.25 h, individual animals, read-out: B/P, Brian/Plasma) was 64.5 and the Kp at 0.25 h (brain, po, 30 mg/Kg, P.O., Time 0.25 h, mean, read-out: B/P, Brian/Plasma, Mean) was 66.9. For the same compound, the Kp at 0.5 h (brain, po, 30 mg/Kg, P.O., Time 0.5 h, individual animals, read-out: B/P, Brian/Plasma) was 122, the Kp at 0.5 h (brain, po, 30 mg/Kg, P.O., Time 0.5 h, mean, read-out: B/P, Brian/Plasma, Mean) was 123 and the Kp at 1 h (brain, po, 30 mg/Kg, P.O., Time 1 h, individual animals, read-out: B/P, Brian/Plasma) was 125. It also gave a Kp at 1 h (brain, po, 30 mg/Kg, P.O., Time 1 h, mean, read-out: B/P, Brian/Plasma, Mean) of 118, a Kp at 2 h (brain, po, 30 mg/Kg, P.O., Time 2 h, individual animals, read-out: B/P, Brian/Plasma) of 99.4 and a Kp at 2 h (brain, po, 30 mg/Kg, P.O., Time 2 h, mean, read-out: B/P, Brian/Plasma, Mean) of 106. The Kp at 4 h (brain, po, 30 mg/Kg, P.O., Time 4 h, individual animals, read-out: B/P, Brian/Plasma) was 117, the Kp at 4 h (brain, po, 30 mg/Kg, P.O., Time 4 h, mean, read-out: B/P, Brian/Plasma, Mean) was 120 and the Kp at 8 h (brain, po, 30 mg/Kg, P.O., Time 8 h, individual animals, read-out: B/P, Brian/Plasma) was 117. It also gave a Kp at 8 h (brain, po, 30 mg/Kg, P.O., Time 8 h, mean, read-out: B/P, Brian/Plasma, Mean) of 132, a half-life (brain, IV 1 mg/kg, read-out: Half-life in brain (converted)) of 1.8 h and a half-life (brain, PO 30 mg/kg, read-out: Half-life in brain (converted)) of 4.2 h. For the same compound, the half-life (plasma, IV 1 mg/kg, read-out: Half-life in plasma (converted)) was 0.6 h and the half-life (plasma, PO 30 mg/kg, read-out: Half-life in plasma (converted)) was 2.2 h.
